Test results reported in patent US20060105023A1, “Treatment of neurological disorders with nicotine” (priority 2001, published 2006).

Assays:
[1] = people with average metabolic capacity for the compound; cited from earlier work
[2] = system: adult; conditions: absorbed in one dose; cited from earlier work
[3] = within six hours, at a half life of about 60 minutes
Description: It should be kept in mind that nicotine is a toxic compound. Therefore, only the minimum amount required for relief from smoking addiction or migraine symptoms should be used. […] Fortunately, nicotine is metabolized fairly rapidly.

CN1CCCC1c1cccnc1 (stereo not drawn) [nicotine]
half life [1]: about 60 minutes
lethal dose [2]: Sixty
amount remaining of one mg of nicotine absorbed in the body [3]: about 0.031 mg
